Patent US20120171166A1, “SYNBIOTIC COMBINATION OF PROBIOTIC AND HUMAN MILK OLIGOSACCHARIDES TO PROMOTE GROWTH OF BENEFICIAL MICROBIOTA” (ABBOTT LABORATORIES, priority 2010, published 2012)
Entries after “also recorded” stand apart in the source; their conditions may differ.

Legend:
[1] = system: Bifidobacterium spp. (12 bifidobacteria strains); assay: Bacterial growth assay (OD600), all bifidobacteria strains tested (Example 37); type: cell-based; conditions: for growth / ability to ferment the carbohydrate (OD600): carbohydrate at 1% final concentration in sMRS+cysteine, all bifidobacteria tested
Description: (§1) All bifidobacteria strains are initially inoculated from frozen stocks, grown in deMan Rogosa Sharpe (MRS) broth (Difco, Detroit, Mich.) supplemented with 0.5 g/L L-cysteine and incubated at 37° C. for 24 h in an anaerobic chamber (90% N2, 5% CO2 and 5% H2). Subsequently, the cultures are passed twice on a semi-synthetic MRS medium (sMRS)+0.5 g/L L-cysteine which is supplemented with 1% (w/v) filter-sterilized glucose as the sole carbohydrate source. After the 2nd pass, cultures are prepared to use as inoculums for growth assays described below. For bifidobacteria strains, the same procedure is followed except all media are supplemented with 0.5 g/l L-cysteine/HCl.
(§2) After the 2nd pass in sMRS+glucose+cysteine, the cultures are washed once with 10 mL of sterile sMRS+cysteine (no carbohydrate), resuspended in 10 ml of sterile sMRS+cysteine (no carbohydrate) and then used as a 1% inoculum. The carbohydrates are sterilized with a 0.22 micron filter and used at a 1% final concentration. Cell growth is performed in 250 μL of sMRS+cysteine covered with 50 μL of mineral oil in a Bioscreen 100-well Honeycomb plate. Cell growth is monitored by measuring optical density at 600 nm (OD600) using a Bioscreen C Automated Microbiology Growth Curve Analysis System. The plate reader is operated in discontinuous mode, with absorbance readings performed in 30-minute intervals, and preceded by 30-second shaking intervals at maximum speed. Controls consist of inoculated medium lacking carbohydrate. Due to space limitations on the microtitre plate, the carbohydrates are divided into three separate groups: plate A (HMO precursors: glucose, galactose, lactose, NAG, fucose, fructose and sialic acid), plate B (Prebiotics: glucose, Purimune™ GOS, purified Purimune™ GOS, Vivinal® GOS, purified Vivinal® GOS, scFOS and PDX), and plate C (HMOs: glucose, 6′-SL, 3′-SL, 2′-FL, 3′-FL and LNnT). All three plates include a positive control (glucose) and negative control (no carbohydrate).
(§3) The OD600 data for each carbohydrate is corrected by subtracting the OD600 of the basal media (sMRS) from the sample plate for each probiotic. Maximum OD is determined by inspection of the corrected growth data. OD is determined by subtracting the initial corrected OD (time point 0) from the maximum corrected OD. Samples are grown in biologically independent triplicates and the resulting growth kinetic data are expressed as the mean of these replicates.
(§4) For the growth curve plots, OD600 vs. time is first plotted for the bacteria grown on medium lacking carbohydrate (sMRS). For all other carbohydrates, the OD600 data is corrected by subtracting the OD600 of sMRS.

B. infantis ATCC 15697 = assay: Bacterial growth assay (OD600), B. infantis ATCC 15697; type: cell-based, Bifidobacterium infantis; conditions: 1% carbohydrate in sMRS+cysteine
Description: as §1, §2, §3, §4

B. infantis M-63 = assay: Bacterial growth assay (OD600), B. infantis M-63; type: cell-based, Bifidobacterium infantis; conditions: 1% carbohydrate in sMRS+cysteine
Description: as §1, §2, §3, §4

[2] = system: infant fecal inoculum (diluted feces); assay: In vitro fermentation model simulating large bowel fermentation with infant fecal inoculum (Example 36); type: cell-based, human infant; conditions: for pH change from baseline: at 3, 6, and 12 h after inoculation, comparison among substrates (P<0.0001)
enteric nerve cells = assay: Peristalsis model using luminally perfused mouse colon (Example 35); conditions: colon muscle perfused at 1, 0.5 and 0.1 mg/mL for 15 minutes; for stimulation of enteric nerve cells: without involving gut microbiota and/or their metabolites
Description: In this Example, the effect of 2′-fucosyllactose (2′FL) or 3′ fucosyllactose (3′FL) on stimulating enteric nerve cells in the gastrointestinal tract of rodents is analyzed.
Specifically, a peristalsis model using luminally perfused mouse colon is used to test the stimulation effect of 2′FL or 3′FL on enteric nerve cells. Colon muscle is perfused with 2′FL or 3′FL, at concentrations of 1 mg/mL, 0.5 mg/mL, and 0.1 mg/mL, for 15 minutes. The frequency and amplitude of contractions of the muscle is analyzed.

B. breve ATCC 15700 = assay: Bacterial growth assay (OD600), B. breve ATCC 15700; type: cell-based, Bifidobacterium breve; conditions: 1% carbohydrate in sMRS+cysteine
Description: as §1
After the 2nd pass in sMRS+glucose+cysteine, the cultures are washed once with 10 mL of sterile sMRS+cysteine (no carbohydrate), resuspended in 10 ml of sterile sMRS+cysteine (no carbohydrate) and then used as a 1% inoculum. The carbohydrates are sterilized with a 0.22 micron filter and used at a 1% final concentration. […] Cell growth is monitored by measuring optical density at 600 nm (OD600) using a Bioscreen C Automated Microbiology Growth Curve Analysis System. The plate reader is operated in discontinuous mode, with absorbance readings performed in 30-minute intervals, and preceded by 30-second shaking intervals at maximum speed. […]

O=C(CO)[C@@H](O)[C@H](O)[C@H](O)CO [fructose, D-Fructose] was tested, and the “growth / ability to ferment the carbohydrate (OD600)” value (shortened to “growth / ability”) [1] was “majority of bifidobacteria is able to ferment”.
With CC(=O)N[C@H]1[C@H]([C@H](O)[C@H](O)CO)O[C@@](OC[C@H]2O[C@@H](O[C@H]3[C@H](O)[C@@H](O)[C@H](O)O[C@@H]3CO)[C@H](O)[C@@H](O)[C@H]2O)(C(=O)O)C[C@@H]1O [6′SL, 6′-sialyllactose] the “growth / ability” value (B. infantis ATCC 15697) was “able to ferment”, the “growth / ability” value [1] was “only B. infantis ATCC 15697 and B. infantis M-63 are able to ferment” and the “growth / ability” value (B. infantis M-63) was “able to ferment”. For the same molecule, the fermentation rate [2] was “about 1,809 μg/g of dry matter/hour”, the “fermentation rate class (rapidly-, medium-, slowly-fermented oligosaccharide)” value (“fermentation rate class” for short) [2] was “Medium-fermented” and the “total SCFA production” value ([2]; 12 h of fermentation) was “greater (P<0.05) for the 6′SL and GOS substrates compared to 2′FL”. For the same molecule, the “total SCFA production” value ([2]; after 3 and 6 h of fermentation) was “lower (P<0.05) with 6′SL compared to GOS”.
With C[C@H](O)[C@@H](O)[C@@H](O)[C@H](O)C=O [L-fucose, L-(−) Fucose] the “growth / ability” value (B. infantis ATCC 15697) was “not able to ferment”, the “growth / ability” value [1] was “None of the bifidobacteria are able to ferment” and the “growth / ability” value (B. infantis M-63) was “not able to ferment”.
For 2′-fucosyllactose [2′FL], the “growth / ability” value (B. infantis ATCC 15697) was “able to ferment”, the amplitude of contraction (enteric nerve cells) was “reduced consistently and in a dose response fashion” and the frequency of contraction (enteric nerve cells) was “reduced consistently and in a dose response fashion”. For the same molecule, the “stimulation of enteric nerve cells” value (enteric nerve cells) was “direct stimulation of nerve cells”, the “stimulation of enteric nerve cells” value (enteric nerve cells; listed as 2′-fucosyllactose) was “stimulates enteric nerve cells” and the “growth / ability” value [1] was “only B. infantis ATCC 15697 and B. infantis M-63 are able to ferment”. For the same molecule, the “growth / ability” value (B. infantis M-63) was “able to ferment”, the fermentation rate [2] was “about 4,872 μg/g of dry matter/hour” and the “pH change from baseline” value [2] was “greatest”.
In the case of CC(=O)N[C@H]1[C@H]([C@H](O)[C@H](O)CO)OC(O)(C(=O)O)C[C@@H]1O (stereo partly shown) [sialic acid, N-acetylneuraminic acid], the “growth / ability” value (B. infantis ATCC 15697) is reported as “not able to ferment”, the “growth / ability” value [1] is reported as “None of the bifidobacteria are able to ferment” and the “growth / ability” value (B. infantis M-63) is reported as “not able to ferment”.
For OC[C@H]1O[C@@H](O[C@H]2[C@H](O)[C@@H](O)[C@@H](O)O[C@@H]2CO)[C@H](O)[C@@H](O)[C@H]1O [lactose, α-Lactose], the “growth on the carbohydrate (OD600)” value ([1]; 1% carbohydrate, bifidobacteria which are not able to ferment galactose) was “reduced growth”.
For CC(=O)N[C@H]1C(O)O[C@H](CO)[C@@H](O)[C@@H]1O (stereo partly drawn) [NAG, N-acetyl-D-glucosamine], the “growth / ability” value [1] was “Only B. breve ATCC 15700 is able to ferment” and the “growth / ability” value (B. breve ATCC 15700) was “able to ferment”.
For CC(=O)N[C@H]1[C@H]([C@H](O)[C@H](O)CO)O[C@@](O[C@H]2[C@@H](O)[C@@H](CO)O[C@@H](O[C@H]3[C@H](O)[C@@H](O)C(O)O[C@@H]3CO)[C@@H]2O)(C(=O)O)C[C@@H]1O (stereo partly shown) [3′SL, 3′-sialyllactose], the “growth / ability” value (B. infantis ATCC 15697) was “able to ferment”, the “growth / ability” value [1] was “only B. infantis ATCC 15697 and B. infantis M-63 are able to ferment” and the “growth / ability” value (B. infantis M-63) was “able to ferment”. The “fermentation rate class” value [2] was “Medium-fermented”.
In the case of CC(=O)N[C@H]1[C@H](O[C@H]2[C@@H](O)[C@@H](CO)O[C@@H](O[C@H]3[C@H](O)[C@@H](O)C(O)O[C@@H]3CO)[C@@H]2O)O[C@H](CO)[C@@H](O[C@@H]2O[C@H](CO)[C@H](O)[C@H](O)[C@H]2O)[C@@H]1O (mixture of isomers) [LNnT, Lacto-N-Neotetraose], the “growth / ability” value (B. infantis ATCC 15697) is reported as “grow well; also recorded: able to ferment”, the “growth / ability” value (B. breve ATCC 15700) is reported as “grow well; also recorded: able to ferment” and the “growth / ability” value (B. infantis M-63) is reported as “grow well; also recorded: able to ferment”. For the same molecule, the fermentation rate [2] was “about 4,488 μg/g of dry matter/hour” and the “pH change from baseline” value [2] was “greatest”.
For 3′-fucosyllactose [3′FL], the “growth / ability” value (B. infantis ATCC 15697) was “able to ferment”, the amplitude of contraction (enteric nerve cells) was “reduced consistently and in a dose response fashion” and the “effectiveness on gut motility, 3′FL compared with 2′FL” value (enteric nerve cells) was “more effective than 2′FL”. For the same molecule, the frequency of contraction (enteric nerve cells) was “reduced consistently and in a dose response fashion”, the “stimulation of enteric nerve cells” value (enteric nerve cells) was “direct stimulation of nerve cells” and the “growth / ability” value [1] was “only B. infantis ATCC 15697 and B. infantis M-63 are able to ferment”. For the same molecule, the “growth / ability” value (B. infantis M-63) was “able to ferment” and the “fermentation rate class” value [2] was “Medium-fermented”.
